Experimental data published in ChEMBL document CHEMBL1201862, “PubChem BioAssay data set” (2004).
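Cells were grown in 96-well plates and exposed to each compound for 48 hours at five concentrations; endpoints were interpolated linearly between bracketing concentrations, or set to the highest concentration if not reached. At the GI50, growth is halved.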 Activity calls are given as the source filed them. No stated cut-off is given here; in the data, active = GI50 up to about 1.1 µM and inactive = higher.

Columns and labels:
Assay in all cases: inhibition of tumour cell growth, NCI panel, 48 h
HCT-15 = tested on: HCT-15
RXF 393 = tested on: RXF 393
LOX IMVI = tested on: LOX IMVI
HL-60 = tested on: HL-60
MOLT-4 = tested on: MOLT-4
KM12 = tested on: KM12
NCI-H226 = tested on: NCI-H226
IGROV-1 = tested on: IGROV-1
UO-31 = tested on: UO-31
SNB-78 = tested on: SNB-78
SN12C = tested on: SN12C
NCI-H23 = tested on: NCI-H23
UACC-257 = tested on: UACC-257
SW-620 = tested on: SW-620
RPMI-8226 = tested on: RPMI-8226
UACC-62 = tested on: UACC-62
XF498 = tested on: XF498
SK-MEL-2 = tested on: SK-MEL-2
DMS-114 = tested on: DMS-114
KM-20L2 = tested on: KM-20L2
HT-29 = tested on: HT-29
COLO 205 = tested on: COLO 205
DMS-273 = tested on: DMS-273
SK-OV-3 = tested on: SK-OV-3
M19-MEL = tested on: M19-MEL
HOP-92 = tested on: HOP-92
DLD-1 = tested on: DLD-1
NCI/ADR-RES = tested on: NCI/ADR-RES
OVCAR-8 = tested on: OVCAR-8
HOP-62 = tested on: HOP-62
CAKI-1 = tested on: CAKI-1
A498 = tested on: A498
OVCAR-4 = tested on: OVCAR-4
SK-MEL-28 = tested on: SK-MEL-28
SF-539 = tested on: SF-539
CCRF-CEM = tested on: CCRF-CEM
A549 = tested on: A549
HOP-18 = tested on: HOP-18
NCI-H522 = tested on: NCI-H522
MCF7 = tested on: MCF7
OVCAR-5 = tested on: OVCAR-5
SNB-19 = tested on: SNB-19
SNB-75 = tested on: SNB-75
Malme-3M = tested on: Malme-3M
HCT-116 = tested on: HCT-116
NCI-H460 = tested on: NCI-H460
K562 = tested on: K562
SF-268 = tested on: SF-268
SF-295 = tested on: SF-295
OVCAR-3 = tested on: OVCAR-3
U-251 = tested on: U-251
EKVX = tested on: EKVX
SK-MEL-5 = tested on: SK-MEL-5
HCC 2998 = tested on: HCC 2998

In the case of `O=C1C(CO)=C[C@H](O)[C@H]2O[C@@H]12`, the GI50 (HCT-15) is reported as 124 µM, the GI50 (RXF 393) is reported as 153 µM (inactive) and the GI50 (LOX IMVI) is reported as 136 µM (inactive). For the same compound, the GI50 (HL-60) was 78.3 µM (inactive), the GI50 (MOLT-4) was 133 µM (inactive) and the GI50 (KM12) was 83.9 µM (inactive). The GI50 (NCI-H226) was 194 µM (inactive), the GI50 (IGROV-1) was 182 µM (inactive) and the GI50 (UO-31) was 267 µM (inactive). The GI50 (SNB-78) was 186 µM (inactive), the GI50 (SN12C) was 128 µM (inactive) and the GI50 (NCI-H23) was 238 µM (inactive). The GI50 (UACC-257) was 158 µM (inactive), the GI50 (SW-620) was 126 µM (inactive) and the GI50 (RPMI-8226) was > 96.8 µM (inactive). For the same compound, the GI50 (UACC-62) was 113 µM (inactive), the GI50 (XF498) was 177 µM (inactive) and the GI50 (SK-MEL-2) was 130 µM (inactive). The GI50 (DMS-114) was 137 µM (inactive), the GI50 (KM-20L2) was 337 µM (inactive) and the GI50 (HT-29) was 260 µM (inactive). For the same compound, the GI50 (COLO 205) was 111 µM (inactive), the GI50 (DMS-273) was 185 µM (inactive) and the GI50 (SK-OV-3) was 330 µM (inactive). The GI50 (M19-MEL) was 120 µM (inactive), the GI50 (HOP-92) was 283 µM (inactive) and the GI50 (DLD-1) was 113 µM (inactive). For the same compound, the GI50 (NCI/ADR-RES) was 162 µM (inactive), the GI50 (OVCAR-8) was 137 µM (inactive) and the GI50 (HOP-62) was 497 µM (inactive). The GI50 (CAKI-1) was 253 µM (inactive), the GI50 (A498) was 234 µM (inactive) and the GI50 (OVCAR-4) was 130 µM (inactive). For the same compound, the GI50 (SK-MEL-28) was 136 µM (inactive), the GI50 (SF-539) was 242 µM (inactive) and the GI50 (CCRF-CEM) was 74.8 µM (inactive). The GI50 (A549) was 318 µM (inactive), the GI50 (HOP-18) was > 625 µM (inactive) and the GI50 (NCI-H522) was 88.7 µM (inactive). The GI50 (MCF7) was 126 µM (inactive), the GI50 (OVCAR-5) was 264 µM (inactive) and the GI50 (SNB-19) was 419 µM (inactive). The GI50 (SNB-75) was 335 µM (inactive), the GI50 (Malme-3M) was 137 µM (inactive) and the GI50 (HCT-116) was 104 µM (inactive). For the same compound, the GI50 (NCI-H460) was 199 µM (inactive), the GI50 (K562) was 163 µM (inactive) and the GI50 (SF-268) was 125 µM (inactive). For the same compound, the GI50 (SF-295) was 84.9 µM (inactive), the GI50 (OVCAR-3) was 177 µM (inactive) and the GI50 (U-251) was 171 µM (inactive). For the same compound, the GI50 (EKVX) was 121 µM (inactive), the GI50 (SK-MEL-5) was 202 µM (inactive) and the GI50 (HCC 2998) was 311 µM (inactive).
